Experiments:
Test in all cases: KinaseProfiler kinase panel
Format in all cases: biochemical
JAK3(h) = JAK3(h) (Homo sapiens (Human), UniProt P52333)
EphA7(h) = EphA7(h) (Homo sapiens (Human), UniProt Q15375)
PKBγ(h) = PKBγ(h) (Homo sapiens (Human), UniProt Q9Y243)
AMPKα1(h) = AMPKα1(h) (Homo sapiens (Human), UniProt Q13131)
PDGFRα(D842V)(h) = PDGFRα(D842V)(h) (Homo sapiens (Human), UniProt P16234, D842V)
CDK6/cyclinD3(h) = CDK6/cyclinD3(h) (Homo sapiens (Human), UniProt Q00534)
PRK2(h) = PRK2(h) (Homo sapiens (Human), UniProt Q16513)
Met(Y1248H)(h) = Met(Y1248H)(h) (Homo sapiens (Human), UniProt P08581, Y1248H)
Hck(h) activated = Hck(h) activated (Homo sapiens (Human), UniProt P08631)
ULK3(h) = ULK3(h) (Homo sapiens (Human), UniProt Q6PHR2)
PDGFRβ(h) = PDGFRβ(h) (Homo sapiens (Human), UniProt P09619)
Aurora-B(h) = Aurora-B(h) (Homo sapiens (Human), UniProt Q96GD4)
Mer(h) = Mer(h) (Homo sapiens (Human), UniProt Q12866)
Axl(h) = Axl(h) (Homo sapiens (Human), UniProt P30530)
PDGFRα(V561D)(h) = PDGFRα(V561D)(h) (Homo sapiens (Human), UniProt P16234, V561D)
PKCη(h) = PKCη(h) (Homo sapiens (Human), UniProt P24723)
PKG1α(h) = PKG1α(h) (Homo sapiens (Human), UniProt Q13976)
Plk3(h) = Plk3(h) (Homo sapiens (Human), UniProt Q9H4B4)
CaMKIIγ(h) = CaMKIIγ(h) (Homo sapiens (Human), UniProt Q13555)
ACK1(h) = ACK1(h) (Homo sapiens (Human), UniProt Q07912)
IRAK4(h) = IRAK4(h) (Homo sapiens (Human), UniProt Q9NWZ3)
TLK2(h) = TLK2(h) (Homo sapiens (Human), UniProt Q86UE8)
MAPKAP-K2(h) = MAPKAP-K2(h) (Homo sapiens (Human), UniProt P49137)
SIK(h) = SIK(h) (Homo sapiens (Human), UniProt P57059)
Fms(Y969C)(h) = Fms(Y969C)(h) (Homo sapiens (Human), UniProt P07333, Y969C)
TAK1(h) = TAK1(h) (Homo sapiens (Human), UniProt O43318)
CDK5/p25(h) = CDK5/p25(h) (Homo sapiens (Human), UniProt Q00535)
PKCα(h) = PKCα(h) (Homo sapiens (Human), UniProt P17252)
JNK2α2(h) = JNK2α2(h) (Homo sapiens (Human), UniProt P45984)
MST2(h) = MST2(h) (Homo sapiens (Human), UniProt Q13188)
EphB1(h) = EphB1(h) (Homo sapiens (Human), UniProt P54762)
MSK2(h) = MSK2(h) (Homo sapiens (Human), UniProt O75676)
Hck(h) = Hck(h) (Homo sapiens (Human), UniProt P08631)
PDK1(h) = PDK1(h) (Homo sapiens (Human), UniProt O15530)
FGFR4(h) = FGFR4(h) (Homo sapiens (Human), UniProt P22455)
HIPK1(h) = HIPK1(h) (Homo sapiens (Human), UniProt Q86Z02)
TGFBR1(h) = TGFBR1(h) (Homo sapiens (Human), UniProt P36897)
EphA1(h) = EphA1(h) (Homo sapiens (Human), UniProt P21709)
MuSK(h) = MuSK(h) (Homo sapiens (Human), UniProt O15146)
cKit(D816V)(h) = cKit(D816V)(h) (Homo sapiens (Human), UniProt P10721, D816V)

Sequence of MST2(h) (Q13188 whole entry): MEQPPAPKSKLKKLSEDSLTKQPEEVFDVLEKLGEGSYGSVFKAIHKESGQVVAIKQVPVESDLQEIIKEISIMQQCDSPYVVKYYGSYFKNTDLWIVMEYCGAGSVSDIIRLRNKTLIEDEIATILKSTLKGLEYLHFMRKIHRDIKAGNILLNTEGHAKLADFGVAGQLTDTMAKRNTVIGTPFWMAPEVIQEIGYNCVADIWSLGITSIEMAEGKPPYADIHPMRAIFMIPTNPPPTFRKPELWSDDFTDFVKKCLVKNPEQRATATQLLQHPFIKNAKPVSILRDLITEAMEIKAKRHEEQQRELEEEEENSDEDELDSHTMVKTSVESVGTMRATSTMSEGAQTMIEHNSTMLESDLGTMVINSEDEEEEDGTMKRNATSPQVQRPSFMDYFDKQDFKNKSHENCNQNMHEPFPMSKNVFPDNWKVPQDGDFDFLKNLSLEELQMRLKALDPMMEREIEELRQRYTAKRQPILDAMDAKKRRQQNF
Sequence of TAK1(h) (O43318 1-303): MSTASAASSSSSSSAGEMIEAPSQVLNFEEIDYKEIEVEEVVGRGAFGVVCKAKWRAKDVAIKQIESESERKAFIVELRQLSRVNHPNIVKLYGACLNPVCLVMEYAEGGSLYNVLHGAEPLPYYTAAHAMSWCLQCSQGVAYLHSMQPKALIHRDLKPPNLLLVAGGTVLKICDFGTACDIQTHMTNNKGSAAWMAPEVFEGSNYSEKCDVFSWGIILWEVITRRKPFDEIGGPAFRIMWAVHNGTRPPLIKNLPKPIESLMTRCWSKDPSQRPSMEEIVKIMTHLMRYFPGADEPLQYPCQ
Sequence of FGFR4(h) (P22455 22-802): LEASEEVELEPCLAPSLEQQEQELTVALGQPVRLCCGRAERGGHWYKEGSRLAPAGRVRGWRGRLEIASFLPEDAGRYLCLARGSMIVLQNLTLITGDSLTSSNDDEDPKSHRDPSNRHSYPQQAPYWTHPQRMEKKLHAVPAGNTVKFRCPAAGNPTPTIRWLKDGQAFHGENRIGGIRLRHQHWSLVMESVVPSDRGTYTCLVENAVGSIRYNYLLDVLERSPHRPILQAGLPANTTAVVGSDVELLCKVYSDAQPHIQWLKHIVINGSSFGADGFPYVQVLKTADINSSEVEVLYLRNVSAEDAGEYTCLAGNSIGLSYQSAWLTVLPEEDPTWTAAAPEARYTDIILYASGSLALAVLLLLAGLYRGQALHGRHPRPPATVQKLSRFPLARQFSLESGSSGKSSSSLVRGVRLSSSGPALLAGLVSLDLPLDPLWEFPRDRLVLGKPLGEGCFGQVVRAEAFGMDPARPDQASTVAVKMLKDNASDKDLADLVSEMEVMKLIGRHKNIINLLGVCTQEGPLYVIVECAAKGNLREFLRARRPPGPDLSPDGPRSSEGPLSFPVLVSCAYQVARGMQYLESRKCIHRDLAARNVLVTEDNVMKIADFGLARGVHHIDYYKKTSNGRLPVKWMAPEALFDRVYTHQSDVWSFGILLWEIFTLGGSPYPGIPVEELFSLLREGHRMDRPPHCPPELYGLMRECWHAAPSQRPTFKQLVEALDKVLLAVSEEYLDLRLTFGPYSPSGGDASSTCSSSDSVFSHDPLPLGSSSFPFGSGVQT
Sequence of PKBγ(h) (Q9Y243 whole entry): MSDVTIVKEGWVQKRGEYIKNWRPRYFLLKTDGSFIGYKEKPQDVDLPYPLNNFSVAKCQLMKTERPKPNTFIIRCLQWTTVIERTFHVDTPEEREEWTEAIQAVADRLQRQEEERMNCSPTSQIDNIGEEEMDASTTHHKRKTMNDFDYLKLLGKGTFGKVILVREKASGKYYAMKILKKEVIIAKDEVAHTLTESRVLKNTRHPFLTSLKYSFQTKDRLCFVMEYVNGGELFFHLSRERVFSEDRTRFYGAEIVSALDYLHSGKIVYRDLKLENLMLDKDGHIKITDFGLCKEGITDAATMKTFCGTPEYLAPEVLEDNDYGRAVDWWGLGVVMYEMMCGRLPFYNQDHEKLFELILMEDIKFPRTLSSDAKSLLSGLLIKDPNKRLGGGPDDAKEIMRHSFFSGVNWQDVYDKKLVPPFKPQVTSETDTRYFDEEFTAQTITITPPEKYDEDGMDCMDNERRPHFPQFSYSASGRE
Sequence of EphB1(h) (P54762 18-984): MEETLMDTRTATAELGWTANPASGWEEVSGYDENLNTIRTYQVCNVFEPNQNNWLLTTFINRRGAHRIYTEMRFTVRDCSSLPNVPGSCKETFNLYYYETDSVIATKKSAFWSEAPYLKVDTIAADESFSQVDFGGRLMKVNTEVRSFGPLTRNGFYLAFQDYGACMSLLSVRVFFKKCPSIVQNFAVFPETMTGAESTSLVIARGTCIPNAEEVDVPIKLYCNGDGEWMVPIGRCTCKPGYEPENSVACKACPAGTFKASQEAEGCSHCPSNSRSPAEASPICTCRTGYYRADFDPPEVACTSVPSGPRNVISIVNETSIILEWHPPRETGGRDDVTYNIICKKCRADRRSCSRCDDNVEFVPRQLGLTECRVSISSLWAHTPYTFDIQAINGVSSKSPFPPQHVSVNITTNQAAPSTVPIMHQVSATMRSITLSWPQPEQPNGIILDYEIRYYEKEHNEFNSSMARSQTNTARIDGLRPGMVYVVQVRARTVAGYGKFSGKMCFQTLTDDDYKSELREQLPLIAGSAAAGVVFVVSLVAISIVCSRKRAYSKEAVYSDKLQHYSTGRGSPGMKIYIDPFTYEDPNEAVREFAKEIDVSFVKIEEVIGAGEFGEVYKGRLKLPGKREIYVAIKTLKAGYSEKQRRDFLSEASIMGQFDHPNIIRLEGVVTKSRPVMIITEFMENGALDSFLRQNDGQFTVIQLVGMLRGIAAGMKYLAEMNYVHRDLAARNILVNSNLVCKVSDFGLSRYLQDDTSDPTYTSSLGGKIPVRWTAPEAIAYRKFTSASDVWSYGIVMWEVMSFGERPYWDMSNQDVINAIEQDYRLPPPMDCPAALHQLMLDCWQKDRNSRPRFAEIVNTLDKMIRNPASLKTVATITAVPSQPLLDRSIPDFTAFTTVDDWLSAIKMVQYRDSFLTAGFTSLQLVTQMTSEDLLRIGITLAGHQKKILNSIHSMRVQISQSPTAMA
Sequence of PDGFRβ(h) (P09619 33-1106): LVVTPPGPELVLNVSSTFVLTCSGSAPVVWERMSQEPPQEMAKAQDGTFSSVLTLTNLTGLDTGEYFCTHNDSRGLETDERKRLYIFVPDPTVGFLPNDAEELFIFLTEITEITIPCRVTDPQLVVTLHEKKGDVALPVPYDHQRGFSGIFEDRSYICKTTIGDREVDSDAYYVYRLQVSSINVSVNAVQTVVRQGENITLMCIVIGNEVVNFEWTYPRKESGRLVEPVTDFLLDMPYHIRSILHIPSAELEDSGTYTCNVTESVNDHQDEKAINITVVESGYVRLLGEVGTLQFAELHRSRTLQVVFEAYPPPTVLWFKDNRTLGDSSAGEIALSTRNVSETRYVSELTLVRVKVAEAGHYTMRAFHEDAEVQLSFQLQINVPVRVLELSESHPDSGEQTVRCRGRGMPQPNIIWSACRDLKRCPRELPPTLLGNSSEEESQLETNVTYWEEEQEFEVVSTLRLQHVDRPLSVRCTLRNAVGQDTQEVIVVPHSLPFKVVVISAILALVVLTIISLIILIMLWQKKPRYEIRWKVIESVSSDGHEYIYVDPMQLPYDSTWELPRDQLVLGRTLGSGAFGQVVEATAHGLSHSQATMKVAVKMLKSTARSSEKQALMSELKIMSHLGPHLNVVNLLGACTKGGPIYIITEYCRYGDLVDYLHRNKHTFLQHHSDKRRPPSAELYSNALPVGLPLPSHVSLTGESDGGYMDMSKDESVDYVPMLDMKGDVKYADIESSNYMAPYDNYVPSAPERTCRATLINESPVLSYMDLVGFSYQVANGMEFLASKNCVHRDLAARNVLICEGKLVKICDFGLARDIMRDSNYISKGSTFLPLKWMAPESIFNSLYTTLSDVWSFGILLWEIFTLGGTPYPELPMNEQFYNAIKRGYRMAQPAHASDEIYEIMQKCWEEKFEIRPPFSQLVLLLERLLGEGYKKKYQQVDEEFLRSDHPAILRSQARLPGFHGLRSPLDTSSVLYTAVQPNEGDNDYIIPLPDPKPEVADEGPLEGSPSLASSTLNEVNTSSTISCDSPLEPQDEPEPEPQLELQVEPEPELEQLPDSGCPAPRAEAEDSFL
Sequence of Hck(h) (P08631 whole entry): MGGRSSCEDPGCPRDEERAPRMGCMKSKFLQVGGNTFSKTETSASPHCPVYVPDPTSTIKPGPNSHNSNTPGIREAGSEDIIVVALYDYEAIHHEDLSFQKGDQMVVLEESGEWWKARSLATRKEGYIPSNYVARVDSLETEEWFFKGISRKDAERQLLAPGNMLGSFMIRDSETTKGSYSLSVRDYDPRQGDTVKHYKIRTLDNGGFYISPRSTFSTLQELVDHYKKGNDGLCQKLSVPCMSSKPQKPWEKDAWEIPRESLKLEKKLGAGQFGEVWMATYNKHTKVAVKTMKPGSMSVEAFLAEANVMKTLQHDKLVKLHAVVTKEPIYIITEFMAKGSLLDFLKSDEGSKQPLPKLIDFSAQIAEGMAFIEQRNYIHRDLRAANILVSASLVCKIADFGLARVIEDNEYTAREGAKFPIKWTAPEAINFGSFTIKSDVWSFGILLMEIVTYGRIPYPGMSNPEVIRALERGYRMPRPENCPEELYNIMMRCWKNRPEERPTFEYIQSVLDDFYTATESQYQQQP
Sequence of MAPKAP-K2(h) (P49137 whole entry): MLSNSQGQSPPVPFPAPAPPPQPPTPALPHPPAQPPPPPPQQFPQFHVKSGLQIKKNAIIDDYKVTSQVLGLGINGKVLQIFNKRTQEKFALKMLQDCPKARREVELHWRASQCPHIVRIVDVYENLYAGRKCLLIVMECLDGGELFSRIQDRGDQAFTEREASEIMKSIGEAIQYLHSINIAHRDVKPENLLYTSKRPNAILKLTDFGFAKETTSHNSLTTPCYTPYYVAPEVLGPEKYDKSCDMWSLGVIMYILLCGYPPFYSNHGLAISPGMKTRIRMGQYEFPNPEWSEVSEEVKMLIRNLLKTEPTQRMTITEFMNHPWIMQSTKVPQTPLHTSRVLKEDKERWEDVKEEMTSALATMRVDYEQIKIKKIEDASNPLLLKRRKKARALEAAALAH

## CCn1c(N2CCNCC2)nc2c(Br)c(Br)c(Br)c(Br)c21 [Compound 416, 4,5,6,7-tetrabromo-1-ethyl-2-(piperazin-1-yl)-1H-benzo[d]imidazole]
JAK3(h)
  remaining activity at 1 µM: 74%
EphA7(h)
  remaining activity at 1 µM: 91%
PKBγ(h)
  remaining activity at 1 µM: 39%
AMPKα1(h)
  remaining activity at 1 µM: 82%
PDGFRα(D842V)(h)
  remaining activity at 1 µM: 17%
CDK6/cyclinD3(h)
  remaining activity at 1 µM: 91%
PRK2(h)
  remaining activity at 1 µM: 56%
Met(Y1248H)(h)
  remaining activity at 1 µM: 70%
Hck(h) activated
  remaining activity at 1 µM: 63%
ULK3(h)
  remaining activity at 1 µM: 84%
PDGFRβ(h)
  remaining activity at 1 µM: 102%
Aurora-B(h)
  remaining activity at 1 µM: 80%
Mer(h)
  remaining activity at 1 µM: 14%
Axl(h)
  remaining activity at 1 µM: 36%
PDGFRα(V561D)(h)
  remaining activity at 1 µM: 68%
PKCη(h)
  remaining activity at 1 µM: 92%
PKG1α(h)
  remaining activity at 1 µM: 7%
Plk3(h)
  remaining activity at 1 µM: 101%
CaMKIIγ(h)
  remaining activity at 1 µM: 41%
ACK1(h)
  remaining activity at 1 µM: 97%
IRAK4(h)
  remaining activity at 1 µM: 52%
TLK2(h)
  remaining activity at 1 µM: 104%
MAPKAP-K2(h)
  remaining activity at 1 µM: 101%
SIK(h)
  remaining activity at 1 µM: 84%
Fms(Y969C)(h)
  remaining activity at 1 µM: 92%
TAK1(h)
  remaining activity at 1 µM: 52%
CDK5/p25(h)
  remaining activity at 1 µM: 1%
PKCα(h)
  remaining activity at 1 µM: 95%
JNK2α2(h)
  remaining activity at 1 µM: 100%
MST2(h)
  remaining activity at 1 µM: 93%
EphB1(h)
  remaining activity at 1 µM: 87%
MSK2(h)
  remaining activity at 1 µM: 16%
Hck(h)
  remaining activity at 1 µM: 79%
PDK1(h)
  remaining activity at 1 µM: 109%
FGFR4(h)
  remaining activity at 1 µM: 94%
HIPK1(h)
  remaining activity at 1 µM: 8%
TGFBR1(h)
  remaining activity at 1 µM: 87%
EphA1(h)
  remaining activity at 1 µM: 75%
MuSK(h)
  remaining activity at 1 µM: 103%
cKit(D816V)(h)
  remaining activity at 1 µM: 61%

— patent publication US8604217B2, “Compound, a process for its preparation, a pharmaceutical composition, use of a compound, a method for modulating or regulating serine/threonine kinases and a serine/threonine kinases modulating agent” (Selvita S.A., priority 2009, dated 2013)
